Experiment [1] relates to Mus musculus. Nature of the experiment: Increase of life span was determined against Ip implanted L1210 / ara-C lymphoid leukemia in mice at a dose of 300 mg/kg per day. The experiment is classed as functional. Conditions: route intraperitoneal.
Experiment [2] concerns Mus musculus. Nature of the experiment: Increase of life span was determined against Ip implanted L1210 / 0 lymphoid leukemia in mice at a dose of 200 mg/kg per day after treatment 1;8/7.5. Format: functional. The conditions noted are these: L1210/0, ip, route intraperitoneal.
Experiment [3] has as its system Mus musculus. Nature of the experiment: Range of survival days for antitumor activity against Ip implanted L1210 / ara-C lymphoid leukemia in mice at a dose of 300 mg/kg per day; range is 8-9. Format: functional. Conditions: route intraperitoneal.
Experiment [4] concerns Mus musculus. The experiment can be described thus: Range of survival days for antitumor activity against Ip implanted L1210 / 0 lymphoid leukemia in mice at a dose of 200 mg/kg per day after treatment 1; range is 4-8. Format: functional. Conditions: route intraperitoneal.
Experiment [5] concerns Mus musculus. Nature of the experiment: Survival time treated / survival time (T/C) for antitumor activity against Ip implanted L1210 / 0 lymphoid leukemia in mice at a dose of 200 mg/kg per day after treatment 1. The experiment is classed as functional. The conditions noted are these: route intraperitoneal.
The subject of experiment [6] is Mus musculus. The experiment can be described thus: Survival time treated/survival time tested (T/C) for antitumor activity against Ip implanted L1210 / ara-C lymphoid leukemia in mice at a dose of 300 mg/kg per day;8/9. Conditions: route intraperitoneal. Format: functional.
The subject of experiment [7] is Mus musculus. The experiment can be described thus: Increase of life span was determined against Ip implanted L1210 / 0 lymphoid leukemia in mice at a dose of 100 mg/kg per day after treatment 1. The experiment is classed as functional. The conditions noted are these: L1210/0, ip, route intraperitoneal.
The test system of experiment [8] is Mus musculus. Nature of the experiment: Increase of life span was determined against Ip implanted L1210 / 0 lymphoid leukemia in mice at a dose of 200 mg/kg per day after treatment 1. The experiment is classed as functional. The conditions noted are these: L1210/0, ip, route intraperitoneal.
Experiment [9] deals with Mus musculus. Nature of the experiment: Range of survival days for antitumor activity against Ip implanted L1210 / 0 lymphoid leukemia in mice at a dose of 100 mg/kg per day after treatment 1; range is 4-11. Format: functional. Conditions: route intraperitoneal.
Experiment [10] relates to Mus musculus. Nature of the experiment: Range of survival days for antitumor activity against Ip implanted L1210 / 0 lymphoid leukemia in mice at a dose of 200 mg/kg per day after treatment 1. Format: functional. The conditions noted are these: route intraperitoneal.
Experiment [11] deals with Mus musculus. The experiment can be described thus: Survival time treated / survival time (T/C) for antitumor activity against Ip implanted L1210 / 0 lymphoid leukemia in mice at a dose of 200 mg/kg per day after treatment 1;6/7. Conditions: route intraperitoneal. The experiment is classed as functional.
The test system of experiment [12] is Mus musculus. Nature of the experiment: Survival time treated / survival time (T/C) for antitumor activity against Ip implanted L1210 / 0 lymphoid leukemia in mice at a dose of 100 mg/kg per day after treatment 1;9.5/7. Format: functional. The conditions noted are these: route intraperitoneal.
The test system of experiment [13] is Mus musculus. The experiment can be described thus: Increase of life span was determined against Ip implanted L1210 / ara-C (II) lymphoid leukemia in mice at a dose of 300 mg/kg per day. The experiment is classed as functional. Conditions: route intraperitoneal.
Experiment [14] relates to Mus musculus. The experiment can be described thus: Increase of life span was determined against Ip implanted L1210 / 0 lymphoid leukemia in mice at a dose of 300 mg/kg per day after treatment 1. The conditions noted are these: L1210/0, ip, route intraperitoneal. The experiment is classed as functional.
The subject of experiment [15] is Mus musculus. The experiment can be described thus: Range of survival days for antitumor activity against Ip implanted L1210 / ara-C (II )lymphoid leukemia in mice at a dose of 300 mg/kg per day; range is 7-8. The experiment is classed as functional. The conditions noted are these: route intraperitoneal.
Experiment [16] relates to Mus musculus. Nature of the experiment: Range of survival days for antitumor activity against Ip implanted L1210 / 0 lymphoid leukemia in mice at a dose of 300 mg/kg per day after treatment 1; range is 7-9. Format: functional. Conditions: route intraperitoneal.
The test system of experiment [17] is Mus musculus. The experiment can be described thus: Survival time treated/survival time tested (T/C) for antitumor activity against Ip implanted L1210 / ara-C (II) lymphoid leukemia in mice at a dose of 300 mg/kg per day;8/9. The experiment is classed as functional. The conditions noted are these: route intraperitoneal.
The subject of experiment [18] is Mus musculus. The experiment can be described thus: Median survival time for antitumor activity against Ip implanted L1210 / 0 lymphoid leukemia in mice at a dose of 300 mg/kg per day after treatment 1;7.5-8. Conditions: route intraperitoneal.
The subject of experiment [19] is Mus musculus. The experiment can be described thus: Range of survival days for antitumor activity against Ip implanted L1210 / 0 lymphoid leukemia in mice at a dose of 100 mg/kg per day after treatment 1; range is 9-10. The conditions noted are these: route intraperitoneal. Format: functional.
The test system of experiment [20] is Mus musculus. The experiment can be described thus: Range of survival days for antitumor activity against Ip implanted L1210 / 0 lymphoid leukemia in mice at a dose of 200 mg/kg per day after treatment 1; range is 4-12. The experiment is classed as functional. The conditions noted are these: route intraperitoneal.
Experiment [21] relates to Mus musculus. The experiment can be described thus: Survival time treated / survival time (T/C) for antitumor activity against Ip implanted L1210 / 0 lymphoid leukemia in mice at a dose of 200 mg/kg per day after treatment 1;7.5/8. Format: functional. The conditions noted are these: route intraperitoneal.
Experiment [22] has as its system Mus musculus. The experiment can be described thus: Survival time treated / survival time (T/C) for antitumor activity against Ip implanted L1210 / 0 lymphoid leukemia in mice at a dose of 100 mg/kg per day after treatment 1;9.5/8. The experiment is classed as functional. Conditions: route intraperitoneal.
The test system of experiment [23] is Mus musculus. Nature of the experiment: Increase of life span was determined against Ip implanted L1210 / 0 lymphoid leukemia in mice at a dose of 100 mg/kg per day after treatment 1-5. The conditions noted are these: L1210/0, ip, route intraperitoneal. The experiment is classed as functional.
The test system of experiment [24] is Mus musculus. The experiment can be described thus: Range of survival days for antitumor activity against Ip implanted L1210 / 0 lymphoid leukemia in mice at a dose of 80 mg/kg per day after treatment 1-5; range is 14-19. The experiment is classed as functional. Conditions: route intraperitoneal.
Experiment [25] concerns Mus musculus. Nature of the experiment: Increase of life span was determined against Ip implanted L1210 / 0 lymphoid leukemia in mice at a dose of 400 mg/kg per day after treatment 1. The experiment is classed as functional. Conditions: L1210/0, ip, route intraperitoneal.
The subject of experiment [26] is Mus musculus. The experiment can be described thus: Increase of life span was determined against Ip implanted L1210 / 0 lymphoid leukemia in mice at a dose of 80 mg/kg per day after treatment 1-5. Format: functional. The conditions noted are these: L1210/0, ip, route intraperitoneal.
Experiment [27] has as its system Mus musculus. The experiment can be described thus: Range of survival days for antitumor activity against Ip implanted L1210 / 0 lymphoid leukemia in mice at a dose of 100 mg/kg per day after treatment 1- 5; range is 15-32. The conditions noted are these: route intraperitoneal. The experiment is classed as functional.
Experiment [28] deals with Mus musculus. The experiment can be described thus: Range of survival days for antitumor activity against Ip implanted L1210 / 0 lymphoid leukemia in mice at a dose of 400 mg/kg per day after treatment 1; range is 11-15. Conditions: route intraperitoneal. The experiment is classed as functional.
In experiment [29] the test system is Mus musculus. Nature of the experiment: Survival time treated / survival time (T/C) for antitumor activity against Ip implanted L1210 / 0 lymphoid leukemia in mice at a dose of 100 mg/kg per day after treatment 1-5;21.5/8. The experiment is classed as functional. Conditions: route intraperitoneal.
Experiment [30] relates to Mus musculus. Nature of the experiment: Survival time treated / survival time (T/C) for antitumor activity against Ip implanted L1210 / 0 lymphoid leukemia in mice at a dose of 400 mg/kg per day after treatment 1;14/8. The experiment is classed as functional. Conditions: route intraperitoneal.
In experiment [31] the test system is Mus musculus. Nature of the experiment: Survival time treated / survival time (T/C) for antitumor activity against Ip implanted L1210 / 0 lymphoid leukemia in mice at a dose of 80 mg/kg per day after treatment 1-5;16/8. Format: functional. The conditions noted are these: route intraperitoneal.
The subject of experiment [32] is Mus musculus. The experiment can be described thus: Increase of life span was determined against Ip implanted L1210 / 0 lymphoid leukemia in mice at a dose of 200 mg/kg per day after treatment 1-5. Format: functional. Conditions: L1210/0, ip, route intraperitoneal.
For experiment [33], the system named is Mus musculus. The experiment can be described thus: Increase of life span was determined against Ip implanted L1210 / 0 lymphoid leukemia in mice at a dose of 400 mg/kg per day after treatment 5. Format: functional. Conditions: L1210/0, ip, route intraperitoneal.
Experiment [34] concerns Mus musculus. The experiment can be described thus: Range of survival days for antitumor activity against Ip implanted L1210 / 0 lymphoid leukemia in mice at a dose of 400 mg/kg per day after treatment 1; range is 8-10. Format: functional. Conditions: route intraperitoneal.
Experiment [35] has as its system Mus musculus. Nature of the experiment: Range of survival days for antitumor activity against Ip implanted L1210 / 0 lymphoid leukemia in mice at a dose of 400 mg/kg per day after treatment 5. The experiment is classed as functional. Conditions: route intraperitoneal.
The test system of experiment [36] is Mus musculus. The experiment can be described thus: Range of survival days for antitumor activity against Ip implanted L1210 / 0 lymphoid leukemia in mice at a dose of 200 mg/kg per day after treatment 1-5; range is 15-17. The experiment is classed as functional. Conditions: route intraperitoneal.
The subject of experiment [37] is Mus musculus. The experiment can be described thus: Survival time treated for antitumor activity against Ip implanted L1210 / 0 lymphoid leukemia in mice at a dose of 400 mg/kg per day after treatment 1;8/7. The conditions noted are these: route intraperitoneal.
Experiment [38] deals with Mus musculus. Nature of the experiment: Survival time treated for antitumor activity against Ip implanted L1210 / 0 lymphoid leukemia in mice at a dose of 400 mg/kg per day after treatment 5;10/7. Conditions: route intraperitoneal.
Experiment [39] concerns Mus musculus. Nature of the experiment: Survival time treated for antitumor activity against Ip implanted L1210 / 0 lymphoid leukemia in mice at a dose of 200 mg/kg per day after treatment 1-5;16/7. The conditions noted are these: route intraperitoneal.

Regarding `CCCCCCCCCCCCCCCCCCSCC(COP(=O)(O)OP(=O)(O)OC[C@H]1O[C@@H](n2ccc(N)nc2=O)[C@H](O)[C@@H]1O)OC` (some centres not stated), the ILS at 300 mg/kg/day in [1] was -11%. Moreover, the ILS at 200 mg/kg/day in [2] worked out at 7%. Also, the “Range of survival days” value in [3] is listed as 8; in experiment [4], 4. Also, the T/C in experiment [5] and in experiment [6] was 8 throughout.
Consider `CCCCCCCCCCCCCCCCCCSCC(COP(=O)(O)OP(=O)(O)OC[C@H]1O[C@@H](n2ccc(N)nc2=O)[C@@H](O)[C@@H]1O)OC` (mixture of isomers), for which the ILS at 100 mg/kg/day in experiment [7] was determined as 36%. Also, in experiment [8], the ILS at 200 mg/kg/day is -14%. Besides, the “Range of survival days” value was determined as 4 in [9] and 6 in experiment [10]. Also, the T/C in experiment [11] came to 6; in [12], 9.5.
As for `CCCCCCCCCCCCCCCCCCSCC(COP(=O)(O)OP(=O)(O)OC[C@H]1O[C@@H](n2ccc(N)nc2=O)[C@H](O)[C@@H]1O)OC(=O)CCCCCCCCCCCCCCC` (mixture of isomers), the ILS at 300 mg/kg/day was -11% in experiment [13] and -6% in experiment [14]. Moreover, the “Range of survival days” value in [15] and in [16] was 7 in each case. Moreover, the results for the median survival time in experiment [17] and in [18] were 8 days and 7.5 days, respectively.
Consider `CCCCCCCCCCCCCCCCCCSCC(COP(=O)(O)OP(=O)(O)OC[C@H]1OC(n2ccc(N)nc2=O)[C@@H](O)[C@@H]1O)OCC` (mixture of isomers), for which the ILS at 100 mg/kg/day in experiment [7] turned out to be 19%. Further, the ILS at 200 mg/kg/day in [8] is -6%. In addition, the “Range of survival days” value in [19] was 9; in experiment [20], 4. For the same compound, the T/C was 7.5 in [21] and 9.5 in [22].
In the case of `CCCCCCCCCCCCCCCCCCSCC(COP(=O)(O)OP(=O)(O)OC[C@H]1OC(n2ccc(N)nc2=O)[C@@H](O)[C@@H]1O)OCCCCCCCCCCCCCCCC` (mixture of isomers), in experiment [23], the ILS at 100 mg/kg/day was determined as 169%. Besides, the “Range of survival days” value in experiment [24] stood at 14; in [27], 15; in [28], 11. The ILS at 400 mg/kg/day in experiment [25] came out at 75%. Besides, the ILS at 80 mg/kg/day in [26] amounted to 100%. The T/C in [29] amounted to 21.5; in [30], 14; in experiment [31] it was 16.
As for `Nc1ccn([C@@H]2O[C@H](CO)[C@@H](O)[C@@H]2O)c(=O)n1` [CYTARABINE], in [32], the ILS at 200 mg/kg/day is 129%. Also, the ILS at 400 mg/kg/day in experiment [25] was 14%; in [33] it was 43%. The entries for the “Range of survival days” value in experiment [34], in [35] and in experiment [36] were 8, 10 and 15, respectively. The survival time in [37] is 8 days; in experiment [38] it was 10 days; in experiment [39], 16 days.
